Laboratory results from PMC11325084, “Pharmacokinetics and tissue distribution of LN002, a new compound alternative oxidase inhibitor against Cryptosporidium in rats” (Frontiers in Pharmacology, 2024).
Like-named read-outs stand apart in the source and are kept apart here.

How the values were obtained:
[1] = Stability of LN002 stock solution; assay type: physicochemical; conditions: for Stock solution stability, measured concentration: nominal concentration 1,000 ng/mL, n = 6, mean ± SD
Procedure: LN002 was dissolved in N,N-dimethylformamide, then mixed to make a concentration of 1 mg/mL standard solution, and stored at −20°C. By investigating the low, middle, and high-concentration stability of rat plasma, the liver and intestinal contents in six replicates at different storage conditions, autosampler, short-term, freeze and thaw, long-term stability, and stock solution stability evaluations were conducted.

[2] = Pharmacokinetics of LN002 in rat plasma after single intravenous injection or oral gavage; assay type: in vivo, Sprague–Dawley (SD) rats; conditions: rats; for AUC(0-t): read-out: AUC0–24 h
Procedure: A total of 24 SD rats, half for each sex, were randomly distributed into four groups and used in the plasma PK study. Heparin sodium was used to prevent blood clotting. Groups 1, 2, and 3 were single-dose oral administration groups, and the administered doses were 100, 200, and 400 mg/kg, respectively. The fourth group was a single-dose group, in which the subjects received 1 mg/kg LN002 via tail vein intravenous injection (In the oral administration group, the drugs were dissolved in 0.5% sodium carboxymethylcellulose, whereas those in the intravenous injection group were dissolved in N,N-dimethylformamide). After administration for each group, approximately 200–300 μL of plasma samples were collected from the tail vein at predefined times (0.167, 0.5, 0.75, 1, 2, 3, 4, 6, 8, 12, and 24 h) ([Song et al., 2021a]). Subsequently, these samples were then placed in centrifuge tubes containing heparin sodium, subjected to centrifugation at 5000 rpm for 10 min at 4°C, and the resulting supernatant was collected and stored at −20°C until further analysis. An aliquot of 100 µL of rat plasma was transferred into a 2 mL Eppendorf (EP) tube and precipitated with 300 µL of acetonitrile. The mixture was vortexed for 1 min, then centrifuged at 13,000 rpm at 4°C for 10 min, and passed through a 0.22 μm filter membrane. Final analysis was conducted by injecting 20 µL of supernatant into HPLC. A Shimadzu LC-20A system (Shimadzu Technologies, Kyoto, Japan) equipped with a LabSolutions system (version 5.1) system was used for HPLC analysis. The separation process utilized an ARD-C18 column (250 mm × 4.6 mm, 5 µm) (Zhongpu Technology Co., Ltd., Fuzhou, China). The analytes were detected using a UV detector at 333 nm. The chromatographic conditions used an isocratic mobile phase that combines methanol (solvent A) and deionized water (solvent B) (75:25, v/v), and they were propelled through the column at a constant flow rate of 1 mL/min, ensuring uniform separation. The injection volume was 20 μL. The temperature of the column was set to 40°C. Pharmacokinetic data were obtained via non-compartmental PK analysis of total concentration versus time profiles for plasma using Phoenix WinNonlin 8.2 (Certara, L.P., Princeton, NJ, United States). Statistical analysis and graphing were undertaken using GraphPad Prism 9.5 for Windows (GraphPad Software, Inc., La Jolla, CA, United States).

[3] = Stability of LN002 in rat plasma, liver homogenate and intestinal contents under storage conditions; assay type: in vitro ADME; set-up: Short-term stability at room temperature (6 h), measured concentration / Freeze and thaw stability at −20°C/Room temperature (3 cycles), measured concentration / Auto-sampler stability (12 h), measured concentration / Long-term stability at −20°C (30 days), measured concentration: unit not given here; conditions: for Auto-sampler stability (12 h), measured concentration / Freeze and thaw stability at −20°C/Room temperature (3 cycles), measured concentration / Long-term stability at −20°C (30 days), measured concentration / Short-term stability at room temperature (6 h), measured concentration: n = 6, mean ± SD
Procedure: By investigating the low, middle, and high-concentration stability of rat plasma, the liver and intestinal contents in six replicates at different storage conditions, autosampler, short-term, freeze and thaw, long-term stability, and stock solution stability evaluations were conducted.

[4] = both sexes, Sprague-Dawley, rat, iv, plasma, i.v. 1 mg/kg, n = 6, mean ± SD
[5] = both sexes, Sprague-Dawley, rat, plasma, iv, 1 mg/kg, i.v. 1 mg/kg, n = 6, mean ± SD
[6] = both sexes, Sprague-Dawley, rat, plasma, po, 100 mg/kg, oral 100 mg/kg, n = 6, mean ± SD
[7] = both sexes, Sprague-Dawley, rat, plasma, po, 200 mg/kg, oral 200 mg/kg, n = 6, mean ± SD
[8] = both sexes, Sprague-Dawley, rat, plasma, po, 400 mg/kg, oral 400 mg/kg, n = 6, mean ± SD
[9] = both sexes, Sprague-Dawley, rat, plasma, po, 400 mg/kg, oral single dose, range across 100, 200 and 400 mg/kg
[10] = both sexes, Sprague-Dawley, rat, plasma, oral 100 mg/kg, n = 6, mean ± SD
[11] = both sexes, Sprague-Dawley, rat, plasma, oral 200 mg/kg, n = 6, mean ± SD
[12] = both sexes, Sprague-Dawley, rat, plasma, oral 400 mg/kg, n = 6, mean ± SD
[13] = intestinal contents, nominal concentration 50 ng/g
[14] = intestinal contents, nominal concentration 200 ng/g
[15] = intestinal contents, nominal concentration 1,000 ng/g
[16] = liver, nominal concentration 50 ng/g
[17] = liver, nominal concentration 200 ng/g
[18] = liver, nominal concentration 1,000 ng/g
[19] = plasma, nominal concentration 50 ng/mL
[20] = plasma, nominal concentration 200 ng/mL
[21] = plasma, nominal concentration 1,000 ng/mL

N#C/C(=C\c1c[nH]nc1-c1ccccc1)c1nn(-c2ccccc2)c(N)c1C#N [LN002, 5-amino-3-[1-cyano-2-(3-phenyl-4-vinopyrazole))-1-phenyl-4-vinopyrazole]
Stock solution stability, measured concentration ([1]; 15 d): 0.941 ± 0.091
Stock solution stability, measured concentration ([1]; 30 d): 0.924 ± 0.051
Degradation of stock solution (in words) ([1]; stock solution, 15 d and 30 d): no appreciable degradation
Tmax ([2]; both sexes, Sprague-Dawley, rat, iv, plasma, i.v. 1 mg/kg, n = 6): 0.75 h
AUC(0-inf) [2, 4]: 8650 ± 1940 ng·h/mL
clearance [2, 4]: 1.83 mL/min/kg
Vd ([2]; both sexes, Sprague-Dawley, rat, iv, plasma, i.v. 1 mg/kg, n = 6, mean ± SD, read-out: Vd): 1.69 ± 0.44 L/kg
Cmax [2, 5]: 2940 ± 2160 ng/mL
half-life [2, 5]: 10.9 ± 6.56 h
AUC(0-t) ([2]; both sexes, Sprague-Dawley, rat, plasma, iv, 1 mg/kg, plasma, i.v. 1 mg/kg, n = 6, mean ± SD): 7020 ± 1520 ng·h/mL
Cmax [2, 6]: 850 ± 190 ng/mL
half-life [2, 6]: 18 ± 5.82 h
bioavailability ([2]; both sexes, Sprague-Dawley, rat, plasma, po, 100 mg/kg, oral 100 mg/kg, read-out: F (oral bioavailability)): 0.32%
AUC(0-t) ([2]; both sexes, Sprague-Dawley, rat, plasma, po, 100 mg/kg, plasma, oral 100 mg/kg, n = 6, mean ± SD): 2280 ± 227 ng·h/mL
CL/F ([2]; both sexes, Sprague-Dawley, rat, plasma, po, 100 mg/kg, plasma, oral 100 mg/kg, n = 6, mean ± SD, read-out: Cl (Cl/F in text) (converted)): 433 mL/min/kg
Cmax [2, 7]: 1670 ± 106 ng/mL
half-life [2, 7]: 18 ± 14.8 h
bioavailability ([2]; both sexes, Sprague-Dawley, rat, plasma, po, 200 mg/kg, oral 200 mg/kg, read-out: F (oral bioavailability)): 0.29%
AUC(0-t) ([2]; both sexes, Sprague-Dawley, rat, plasma, po, 200 mg/kg, plasma, oral 200 mg/kg, n = 6, mean ± SD): 4070 ± 779 ng·h/mL
CL/F ([2]; both sexes, Sprague-Dawley, rat, plasma, po, 200 mg/kg, plasma, oral 200 mg/kg, n = 6, mean ± SD, read-out: Cl (Cl/F in text) (converted)): 524 mL/min/kg
Cmax [2, 8]: 4030 ± 410 ng/mL
half-life [2, 8]: 18.8 ± 11.4 h
bioavailability ([2]; both sexes, Sprague-Dawley, rat, plasma, po, 400 mg/kg, oral 400 mg/kg, read-out: F (oral bioavailability)): 0.27%
Cmax [2, 9]: 850 to 4030 ng/mL
half-life [2, 9]: 18 to 18.8 h
bioavailability ([2]; both sexes, Sprague-Dawley, rat, plasma, po, 400 mg/kg, oral single dose, range across 100, 200 and 400 mg/kg, read-out: F): 0.27 to 0.32%
AUC(0-t) ([2]; both sexes, Sprague-Dawley, rat, plasma, po, 400 mg/kg, plasma, oral 400 mg/kg, n = 6, mean ± SD): 7500 ± 507 ng·h/mL
CL/F ([2]; both sexes, Sprague-Dawley, rat, plasma, po, 400 mg/kg, plasma, oral 400 mg/kg, n = 6, mean ± SD, read-out: Cl (Cl/F in text) (converted)): 650 mL/min/kg
AUC(0-t) ([2]; both sexes, Sprague-Dawley, rat, plasma, po, 400 mg/kg, plasma, oral single dose, range across 100, 200 and 400 mg/kg): 2280 to 7500 ng·h/mL
CL/F ([2]; both sexes, Sprague-Dawley, rat, plasma, po, 400 mg/kg, plasma, oral single dose, range across 100, 200 and 400 mg/kg, read-out: Cl/F): 433 to 650 mL/min/kg
Tmax ([2]; both sexes, Sprague-Dawley, rat, plasma, oral 100 mg/kg, n = 6): 1 h
AUC(0-inf) [2, 10]: 3530 ± 734 ng·h/mL
Vd/F [2, 10]: 582 ± 270 L/kg
Tmax ([2]; both sexes, Sprague-Dawley, rat, plasma, oral 200 mg/kg, n = 6): 1 h
AUC(0-inf) [2, 11]: 6030 ± 2310 ng·h/mL
Vd/F [2, 11]: 764 ± 314 L/kg
AUC(0-inf) [2, 12]: 11400 ng·h/mL
Vd/F [2, 12]: 869 ± 279 L/kg
Tmax ([2]; both sexes, Sprague-Dawley, rat, plasma, oral single dose, across 100, 200 and 400 mg/kg): 1 h
PK behaviour over dose (in words) ([2]; oral 100, 200 and 400 mg/kg): linear
Vd ([2]; plasma, oral single dose, range across 100, 200 and 400 mg/kg): 581.54 to 869.21 L/kg
Auto-sampler stability (12 h), measured concentration [3, 13]: 0.048 ± 0.001
Freeze and thaw stability at −20°C/Room temperature (3 cycles), measured concentration [3, 13]: 0.050 ± 0.002
Long-term stability at −20°C (30 days), measured concentration [3, 13]: 0.048 ± 0.002
Short-term stability at room temperature (6 h), measured concentration [3, 13]: 0.051 ± 0.002
Auto-sampler stability (12 h), measured concentration [3, 14]: 0.191 ± 0.011
Freeze and thaw stability at −20°C/Room temperature (3 cycles), measured concentration [3, 14]: 0.192 ± 0.009
Long-term stability at −20°C (30 days), measured concentration [3, 14]: 0.202 ± 0.003
Short-term stability at room temperature (6 h), measured concentration [3, 14]: 0.204 ± 0.007
Auto-sampler stability (12 h), measured concentration [3, 15]: 1.001 ± 0.034
Freeze and thaw stability at −20°C/Room temperature (3 cycles), measured concentration [3, 15]: 0.978 ± 0.053
Long-term stability at −20°C (30 days), measured concentration [3, 15]: 0.997 ± 0.012
Short-term stability at room temperature (6 h), measured concentration [3, 15]: 0.976 ± 0.042
Auto-sampler stability (12 h), measured concentration [3, 16]: 0.049 ± 0.002
Freeze and thaw stability at −20°C/Room temperature (3 cycles), measured concentration [3, 16]: 0.051 ± 0.002
Long-term stability at −20°C (30 days), measured concentration [3, 16]: 0.051 ± 0.002
Short-term stability at room temperature (6 h), measured concentration [3, 16]: 0.050 ± 0.003
Auto-sampler stability (12 h), measured concentration [3, 17]: 0.198 ± 0.007
Freeze and thaw stability at −20°C/Room temperature (3 cycles), measured concentration [3, 17]: 0.205 ± 0.005
Long-term stability at −20°C (30 days), measured concentration [3, 17]: 0.196 ± 0.007
Short-term stability at room temperature (6 h), measured concentration [3, 17]: 0.197 ± 0.009
Auto-sampler stability (12 h), measured concentration [3, 18]: 1.065 ± 0.036
Freeze and thaw stability at −20°C/Room temperature (3 cycles), measured concentration [3, 18]: 0.985 ± 0.057
Long-term stability at −20°C (30 days), measured concentration [3, 18]: 0.995 ± 0.064
Short-term stability at room temperature (6 h), measured concentration [3, 18]: 0.984 ± 0.042
Auto-sampler stability (12 h), measured concentration [3, 19]: 0.050 ± 0.002
Freeze and thaw stability at −20°C/Room temperature (3 cycles), measured concentration [3, 19]: 0.048 ± 0.002
Long-term stability at −20°C (30 days), measured concentration [3, 19]: 0.052 ± 0.002
Short-term stability at room temperature (6 h), measured concentration [3, 19]: 0.051 ± 0.003
Auto-sampler stability (12 h), measured concentration [3, 20]: 0.204 ± 0.014
Freeze and thaw stability at −20°C/Room temperature (3 cycles), measured concentration [3, 20]: 0.197 ± 0.014
Long-term stability at −20°C (30 days), measured concentration [3, 20]: 0.203 ± 0.006
Short-term stability at room temperature (6 h), measured concentration [3, 20]: 0.210 ± 0.013
Auto-sampler stability (12 h), measured concentration [3, 21]: 0.992 ± 0.061
Freeze and thaw stability at −20°C/Room temperature (3 cycles), measured concentration [3, 21]: 1.028 ± 0.035
Long-term stability at −20°C (30 days), measured concentration [3, 21]: 1.035 ± 0.080
Short-term stability at room temperature (6 h), measured concentration [3, 21]: 0.987 ± 0.032
Stability in plasma and tissue homogenate (in words) ([3]; rat plasma, liver, intestinal contents, short-term, freeze and thaw, auto-sampler, long-term): stable
